Experimental data reported in article PMC6199744, “Development of Chemical Proteomics for the Folateome and Analysis of the Kinetoplastid Folateome” (ACS Infectious Diseases, 2018).
Like-named read-outs stand apart in the source and are kept apart here.

Tests used:
[1] = biological target: DHFR-TS (Trypanosoma brucei brucei, UniProt Q27783); assay: Individual bead pull down with competing free ligand; conditions: competing free ligand 100 μM; bead = immobilized compound of the row; T. brucei lysate; read-out: % Inhibition of protein binding to bead, DHFR-TS, T. brucei
Source text: (§1) Antifolate compounds were immobilized onto NHS-activated sepharose beads/reverse sepharose beads through amide coupling via either an amino or carboxyl group (see Figure 3). The reaction was monitored by observing the disappearance of test compound by LCMS, after which the unreacted coupling sites were capped with NHS-acetate or aminoethanol.
(§2) Folate metabolizing enzymes are not highly abundant proteins,[19],[20] potentially making their identification by MS difficult. Beads will not only pull down the low abundant high affinity binders but also attract highly abundant, low affinity binders or so-called nonspecific binders. Sometimes, the nonspecific high abundant proteins can mask true binders. The target identification approach used in this study overcomes this issue by performing competition studies. Various concentrations of the free unmodified inhibitor (test compound) were preincubated with the lysate, prior to addition of the beads derivatized with immobilized compounds. Following washing of the bound proteins from the beads and tryptic digest, the peptides were labeled using the TMTs and then pooled. Differences in peptide abundance were analyzed by fragmentation of the isotope-coded isobaric tags in the MS/MS spectra (Figure 5).[9],[11],[12],[21] While the competition experiments with test compound confirm specific binding, it is also possible that some proteins will have a stronger binding interaction with the derivatized beads than the competing test compound, due to subtle differences in the interactions between the immobilized compound and the test compound with the target protein.

[2] = biological target: PTR-1 (Trypanosoma brucei brucei, UniProt O76290); assay: as above; conditions: competing free ligand 100 μM; bead = immobilized compound of the row; T. brucei lysate; read-out: % Inhibition of protein binding to bead, PTR-1, T. brucei
Source text: as §1, §2

[3] = system: TB927.8.6460; assay: Multitargeted bead mixture competition; type: binding, T. brucei; conditions: multitargeted bead mixture; free ligand 100 μM; T. brucei lysate; TB927.8.6460
[4] = system: BRANCHED-CHAIN AMINO ACID AMINOTRANSFERASE, PUTATI (TB427.02.4590); assay: Multitargeted bead mixture competition; type: binding; conditions: free ligand 100 μM, T. brucei lysate
[5] = system: T. brucei lysate proteins; type: binding, Trypanosoma brucei; conditions: X016405, bead mixture, free compound 100.0uM, Trypanosoma brucei
[6] = system: PHOSPHATIDYLINOSITOL-4-PHOSPHATE 5-KINASE, PUTATIV (TB427.10.3890); assay: Multitargeted bead mixture competition; type: binding; conditions: free ligand 100 μM, T. brucei lysate
[7] = biological target: PTERIDINE REDUCTASE (TB927.8.2210) (Trypanosoma brucei brucei, UniProt O76290); assay: Multitargeted bead mixture competition; type: binding, T. brucei; conditions: multitargeted bead mixture; free ligand 100 μM; T. brucei lysate; TB927.8.2210 PTERIDINE REDUCTASE
[8] = biological target: GLYCERALDEHYDE 3-PHOSPHATE DEHYDROGENASE, GLYCOSOM (TB427.06.4300) (Trypanosoma brucei brucei, UniProt P22512); assay: Multitargeted bead mixture competition; type: binding, T. brucei; conditions: multitargeted bead mixture; free ligand 100 μM; T. brucei lysate; TB427.06.4300 GAPDH
[9] = biological target: DIHYDROFOLATE REDUCTASE-T[…] (TB427.07.5480) (Trypanosoma brucei brucei, UniProt Q27783); assay: Multitargeted bead mixture competition; type: binding; conditions: multitargeted bead mixture; free ligand 100 μM; T. brucei lysate; TB427.07.5480 DHFR-TS
[10] = system: PROTEIN KINASE, PUTATIVE (Tb427.03.1570); assay: Multitargeted bead mixture competition; type: binding; conditions: free ligand 100 μM, T. brucei lysate
[11] = system: TB927.7.1340; assay: Multitargeted bead mixture competition; type: binding; conditions: free ligand 100 μM, T. brucei lysate
[12] = system: PEPTIDYL-PROLYL CIS-TRANS ISOMERASE (CYCLOPHILIN- (TB427TMP.211.1350)); assay: Multitargeted bead mixture competition; type: binding; conditions: free ligand 100 μM, T. brucei lysate
[13] = system: TB427.04.1870; assay: Multitargeted bead mixture competition; type: binding; conditions: free ligand 100 μM, T. brucei lysate
[14] = system: TB927.8.6760; assay: Multitargeted bead mixture competition; type: binding; conditions: free ligand 100 μM, T. brucei lysate
[15] = system: CHOLINE KINASE (TB427TMP.18.0017); assay: Multitargeted bead mixture competition; type: binding, T. brucei; conditions: multitargeted bead mixture; free ligand 100 μM; T. brucei lysate; TB427TMP.18.0017 CHOLINE KINASE
[16] = system: ACETYLTRANSFERASE, PUTATIVE (Tb427.08.3310); assay: Multitargeted bead mixture competition; type: binding; conditions: free ligand 100 μM, T. brucei lysate
[17] = system: NGG1 INTERACTING FACTOR 3-LIKE (Tb427tmp.02.5000); type: binding; conditions: multitargeted bead mixture; free ligand 100 μM; T. brucei lysate; Tb427tmp.02.5000
[18] = system: SUCCINYL-COA SYNTHETASE ALPHA SUBUNIT, PUTATIVE (Tb427.03.2230); assay: Multitargeted bead mixture competition; type: binding; conditions: free ligand 100 μM, T. brucei lysate
[19] = system: HYPOTHETICAL PROTEIN, CONSERVED (TB427.03.2670); assay: Multitargeted bead mixture competition; type: binding; conditions: free ligand 100 μM, T. brucei lysate
[20] = system: TB11.03.0290; assay: Multitargeted bead mixture competition; type: binding, T. brucei; conditions: multitargeted bead mixture; free ligand 100 μM; T. brucei lysate; TB11.03.0290
[21] = system: HYPOTHETICAL PROTEIN, CONSERVED (Tb427.10.6100); assay: Multitargeted bead mixture competition; type: binding; conditions: free ligand 100 μM, T. brucei lysate
[22] = system: TB09.211.1690; assay: Multitargeted bead mixture competition; type: binding; conditions: free ligand 100 μM, T. brucei lysate
[23] = system: HYPOTHETICAL PROTEIN, CONSERVED (TB427.05.3680); assay: Multitargeted bead mixture competition; type: binding; conditions: free ligand 100 μM, T. brucei lysate
[24] = system: IRON/ASCORBATE OXIDOREDUCTASE FAMILY PROTEIN, PUTA (Tb427.02.6180); assay: Multitargeted bead mixture competition; type: binding, T. brucei; conditions: multitargeted bead mixture; free ligand 100 μM; T. brucei lysate; Tb427.02.6180
[25] = biological target: DHFR-TS (Leishmania major, UniProt P07382); assay: biochemical; conditions: competing free ligand 100 μM; bead = immobilized compound of the row; L. major lysate; read-out: % Inhibition of protein binding to bead, DHFR-TS, L. major
[26] = biological target: TbTS; conditions: recombinant protein assay; ref 6 (SI); read-out: Ki, recombinant TbTS; cited from earlier work
[27] = biological target: T1, PTR1 (Leishmania major, UniProt Q01782); assay: biochemical; conditions: competing free ligand 100 μM; bead = immobilized compound of the row; L. major lysate; read-out: % Inhibition of protein binding to bead, PTR-1, L. major
T1 sequence (Q01782 1-288): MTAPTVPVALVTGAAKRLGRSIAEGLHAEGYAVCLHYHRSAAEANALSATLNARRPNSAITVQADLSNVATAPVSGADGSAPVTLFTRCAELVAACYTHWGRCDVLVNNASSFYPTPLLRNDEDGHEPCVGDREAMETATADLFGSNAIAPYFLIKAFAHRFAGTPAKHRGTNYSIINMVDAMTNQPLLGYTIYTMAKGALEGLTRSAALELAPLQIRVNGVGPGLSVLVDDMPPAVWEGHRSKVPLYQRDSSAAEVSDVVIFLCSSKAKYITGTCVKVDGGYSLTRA

[28] = biological target: T2, MTHFS, the 5-formyl-THF-cyclo-ligase (Homo sapiens, UniProt P49914); assay: Multitargeted bead mixture competition, HeLa cell extract; type: binding; conditions: bead mixture; HeLa cell extract
T2 sequence (P49914 1-203): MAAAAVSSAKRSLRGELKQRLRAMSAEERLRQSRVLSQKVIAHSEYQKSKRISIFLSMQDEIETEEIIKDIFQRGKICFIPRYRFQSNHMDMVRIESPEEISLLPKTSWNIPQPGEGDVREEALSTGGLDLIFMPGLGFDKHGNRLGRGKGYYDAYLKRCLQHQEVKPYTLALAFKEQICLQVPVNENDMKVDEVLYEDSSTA

[29] = biological target: human enzyme (DHCH); parameters: method as in ref 8 (SI); conditions: ref 8 (SI); cited from earlier work
[30] = biological target: leishmania DHCH enzyme; parameters: method as in ref 10 (SI); conditions: ref 10 (SI); cited from earlier work

PTR-1, sequence (O76290 entry or part of it): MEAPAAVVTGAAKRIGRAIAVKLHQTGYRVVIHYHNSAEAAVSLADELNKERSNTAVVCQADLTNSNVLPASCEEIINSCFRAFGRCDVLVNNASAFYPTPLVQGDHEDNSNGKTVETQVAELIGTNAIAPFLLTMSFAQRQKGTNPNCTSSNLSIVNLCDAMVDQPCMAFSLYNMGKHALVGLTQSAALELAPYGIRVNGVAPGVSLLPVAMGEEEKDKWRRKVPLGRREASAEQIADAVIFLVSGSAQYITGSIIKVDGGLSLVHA
DHFR-TS (Trypanosoma brucei brucei, UniProt Q27783), sequence (Q27783 whole entry): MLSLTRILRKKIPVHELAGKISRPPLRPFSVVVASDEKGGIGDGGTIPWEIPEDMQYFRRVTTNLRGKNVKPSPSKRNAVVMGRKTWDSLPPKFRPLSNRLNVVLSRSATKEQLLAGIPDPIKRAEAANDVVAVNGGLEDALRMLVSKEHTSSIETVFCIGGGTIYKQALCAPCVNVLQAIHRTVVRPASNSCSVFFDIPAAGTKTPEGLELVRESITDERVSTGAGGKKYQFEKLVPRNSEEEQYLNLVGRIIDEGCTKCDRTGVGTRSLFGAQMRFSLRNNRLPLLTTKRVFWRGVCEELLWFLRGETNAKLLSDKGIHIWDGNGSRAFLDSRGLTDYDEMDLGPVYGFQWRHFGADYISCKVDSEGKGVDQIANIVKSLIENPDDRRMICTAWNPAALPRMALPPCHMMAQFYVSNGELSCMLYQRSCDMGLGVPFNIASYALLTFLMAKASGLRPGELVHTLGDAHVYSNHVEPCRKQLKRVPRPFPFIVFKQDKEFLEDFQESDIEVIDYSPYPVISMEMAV
PTERIDINE REDUCTASE (TB927.8.2210), sequence (O76290 entry or part of it): as the sequence (O76290 entry or part of it) above
UniProt P22512, sequence (P22512 whole entry): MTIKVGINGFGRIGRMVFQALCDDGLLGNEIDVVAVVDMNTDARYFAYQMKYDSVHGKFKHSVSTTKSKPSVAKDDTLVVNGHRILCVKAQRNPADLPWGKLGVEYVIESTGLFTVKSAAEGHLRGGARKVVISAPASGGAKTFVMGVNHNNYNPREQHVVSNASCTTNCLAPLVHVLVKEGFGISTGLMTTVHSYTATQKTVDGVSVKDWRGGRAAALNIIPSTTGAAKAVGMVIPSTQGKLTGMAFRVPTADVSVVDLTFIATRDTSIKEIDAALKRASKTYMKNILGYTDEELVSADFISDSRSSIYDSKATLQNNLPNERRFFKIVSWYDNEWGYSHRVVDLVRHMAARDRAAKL
DHFR-TS (Leishmania major, UniProt P07382), sequence (P07382 whole entry): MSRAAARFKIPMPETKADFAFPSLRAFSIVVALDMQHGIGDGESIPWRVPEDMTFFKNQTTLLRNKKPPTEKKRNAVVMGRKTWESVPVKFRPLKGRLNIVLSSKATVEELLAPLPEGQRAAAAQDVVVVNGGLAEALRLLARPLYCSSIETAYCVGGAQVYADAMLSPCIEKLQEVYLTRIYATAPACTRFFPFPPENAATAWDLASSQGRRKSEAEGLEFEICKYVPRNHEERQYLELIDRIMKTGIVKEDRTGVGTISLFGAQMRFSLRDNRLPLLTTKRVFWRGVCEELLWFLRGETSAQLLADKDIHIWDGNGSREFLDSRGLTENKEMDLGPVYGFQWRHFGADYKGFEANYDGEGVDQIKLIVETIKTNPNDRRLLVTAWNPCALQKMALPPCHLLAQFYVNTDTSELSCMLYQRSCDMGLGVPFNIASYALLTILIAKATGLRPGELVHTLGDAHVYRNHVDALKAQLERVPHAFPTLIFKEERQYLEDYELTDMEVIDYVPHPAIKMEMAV
UniProt Q27783, sequence (Q27783 whole entry): as the sequence (Q27783 whole entry) above

For `NCCOCCOc1ccc(Cc2cnc(N)nc2N)cc1` [compound 13], which inhibition at 100 µM [1] is on record?
The inhibition at 100 µM was 75%.

And the inhibition at 100 µM [2]?
The inhibition at 100 µM was 51%.

With `Nc1nc(O)c2c(CCc3ccccc3)c[nH]c2n1` [compound 5] as the compound, how does the “percentage of competition from bead binding” value (“percentage of competition” for short) [3] read?
Its value is 65%.

And the “percentage of competition” value [4]?
Its value is -22%.

And the “abundance relative to vehicle” value ([5]; protein TB427.02.1850)?
Its value is 0.89.

What about the “abundance relative to vehicle” value ([5]; protein TB427.06.4760) of the same compound?
The value was 1.04.

And the “abundance relative to vehicle” value ([5]; protein TB427.07.3620)?
The value was 1.03.

And the “abundance relative to vehicle” value ([5]; protein TB427.08.1880)?
The value was 0.84.

What about the “percentage of competition” value [6] of the same compound?
Its value is 49%.

And the “percentage of competition” value [7]?
Its value is 93%.

What about the “percentage of competition” value [8] of the same compound?
The value was 15%.

What about the “percentage of competition” value [9] of the same compound?
Its value is 5%.

What about the “percentage of competition” value [10] of the same compound?
The value was 60%.

And the “percentage of competition” value [11]?
The value was -41%.

And the “percentage of competition” value [12]?
Its value is -24%.

What about the “percentage of competition” value [13] of the same compound?
The value was 50%.

And the “percentage of competition” value [14]?
Its value is -71%.

What about the “percentage of competition” value [15] of the same compound?
Its value is 49%.

What about the “percentage of competition” value [16] of the same compound?
Its value is 61%.

And the “percentage of competition” value [17]?
Its value is 6%.

And the “percentage of competition” value [18]?
Its value is 51%.

What about the “percentage of competition” value [19] of the same compound?
Its value is 54%.

What about the “percentage of competition” value [20] of the same compound?
Its value is 61%.

What about the “percentage of competition” value [21] of the same compound?
Its value is 77%.

What about the “percentage of competition” value [22] of the same compound?
The value was -34%.

What about the “percentage of competition” value [23] of the same compound?
Its value is 70%.

And the “percentage of competition” value [24]?
Its value is 80%.

Which results are given for `NCCCCCOc1ccc(Cc2cnc(N)nc2N)cc1` [compound 10]?
inhibition at 100 µM [1]: 84%; inhibition at 100 µM [2]: 77%

For `NCCCCCOc1cccc(Cc2cnc(N)nc2N)c1` [compound 11], which inhibition at 100 µM [1] is on record?
Its inhibition at 100 µM is 87%.

What about the inhibition at 100 µM [2] of the same compound?
The inhibition at 100 µM was 56%.

Which results are given for `NCCOCCOc1cccc(Cc2cnc(N)nc2N)c1` [compound 12]?
inhibition at 100 µM [1]: 79%; inhibition at 100 µM [2]: 51%

What does the source list for `Nc1nc(=O)c2nc(CNc3ccc(C(=O)N[C@@H](CCC(=O)O)C(=O)O)cc3)cnc2[nH]1` [Folic acid]?
inhibition at 100 µM [1]: 77%; inhibition at 100 µM [2]: 92%; inhibition at 100 µM [25]: 85%

For `Cc1ccc2nc(N)[nH]c(=O)c2c1Sc1ccncc1` [NTX, nolatrexed], which “percentage of competition” value [3] is on record?
Its value is 68%.

What about the “percentage of competition” value [4] of the same compound?
The value was 9%.

And the Ki [26]?
Its Ki is 39.4 nM.

What about the “percentage of competition” value [6] of the same compound?
The value was 16%.

And the “percentage of competition” value [7]?
Its value is 16%.

And the “percentage of competition” value [8]?
Its value is 18%.

And the “percentage of competition” value [9]?
Its value is -5%.

And the “percentage of competition” value [10]?
The value was 11%.

What about the “percentage of competition” value [11] of the same compound?
The value was 11%.

And the inhibition at 100 µM [27]?
Its inhibition at 100 µM is less than 50%.

What about the “percentage of competition” value [12] of the same compound?
Its value is 1%.

What about the “percentage of competition” value [13] of the same compound?
The value was 52%.

What about the “percentage of competition” value [14] of the same compound?
The value was 8%.

And the “percentage of competition” value [15]?
The value was 34%.

What about the “percentage of competition” value [16] of the same compound?
Its value is 29%.

And the “binding to MTHFS” value [28]?
Its value is “bound MTHFS”.

What about the “percentage of competition” value [17] of the same compound?
The value was 87%.

What about the “percentage of competition” value [18] of the same compound?
The value was 27%.

And the “percentage of competition” value [19]?
Its value is 11%.

And the “percentage of competition” value [20]?
The value was 77%.

And the “percentage of competition” value [21]?
Its value is 33%.

What about the “percentage of competition” value [22] of the same compound?
The value was -7%.

What about the “percentage of competition” value [23] of the same compound?
Its value is 38%.

What about the inhibition at 100 µM [25] of the same compound?
Its inhibition at 100 µM is less than 50%.

And the “percentage of competition” value [24]?
The value was 52%.

Which Ki [29] does the source give for `Nc1nc2c(c(=O)[nH]1)N1C(=O)N(c3ccc(C(=O)NC(CCC(=O)O)C(=O)O)cc3)CC1CN2` (stereo not drawn) [compound 4] here?
Its Ki is 18 ± 5 nM.

And the Ki [30]?
The Ki was 105 ± 2 nM.
